Measurements from US20230143352A1 (Humanetics Corporation, priority 2020, published 2023).

Key:
[1] = system: radiation-induced edema and fibrosis in the lung; test: Mouse model of DEARE-lung: whole thoracic lung irradiation (WTLI) followed by oral genistein suspension; assay type: in vivo; conditions: WTLI mice
Description: FIG. 1A includes representative images of animal lungs stained with Masson's Trichrome. Images on the left are whole-lung, and images on the right are high magnification (10×). […] Error bars ±SEM.
Animals were treated for two, four, or six weeks.

[2] = system: normal lung tissue (WTLI-irradiated); test: A549 mouse xenograft model with WTLI: radioprotection of normal lung tissue; assay type: in vivo, athymic CD1 nu/nu mice; conditions: A549 xenograft mice
Description: FIG. 2A is an image of a mouse in which A549 cells were implanted subcutaneously, followed by treatment with 12.5 Gy of radiotherapy (RT). […] The white box indicates the path of radiation, and the circle indicates the tumor site.
Other nonclinical studies focused on protection of the lungs in the context of cancer radiotherapy. A549 lung cancer cells were implanted subcutaneously in athymic CD1 nu/nu mice. The location of the implant was specific, so that a single dose of WTLI would hit the tumor and the normal lung tissue (FIG. 2A). Mice were then administered a nanoparticulate genistein suspension or vehicle control by daily oral gavage for seven days prior to WTLI and continuing until the end of the study.

[3] = system: therapy-induced pneumonitis and pulmonary fibrosis; test: Genistein phase 1b/2a trial in NSCLC patients on chemoradiotherapy: toxicity and adverse events; assay type: in vivo, human
Description: FIGS. 3A and 3B are graphs plotting pulmonary adverse event incidence rates in non-small cell lung cancer (NSCLC) clinical trials.
The drug was added to patients' chemoradiotherapy regimens to reduce the incidence of therapy-induced pneumonitis and pulmonary fibrosis. […] Patients ingested the suspension once daily for one week prior to chemoradiotherapy, and also while on concurrent chemoradiotherapy for a total of six to eight weeks.

[4] = system: SARS-CoV-2; test: K18-hACE2 transgenic mouse model of SARS-CoV-2 infection; assay type: in vivo
[5] = several pharmaceutically acceptable solvents; cited from earlier work
[6] = system: NF-κB, pro-inflammatory cytokines, pro-fibrotic proteins; conditions: cited from earlier work
[7] = system: radiation-induced fibrosis; conditions: rat RiED model; treatment starting two hours after radiation exposure; cited from earlier work
[8] = daily oral gavage from 7 days before WTLI to end of study
[9] = K18-hACE2 Mouse Study 2, oral BID 7 d

O=c1c(-c2ccc(O)cc2)coc2cc(O)cc(O)c12 [genistein, 5,7-dihydroxy-3-(4-hydroxyphenyl)-4H-chromen-4-one]
immune infiltrate, edema and fibrosis of the lungs (histopathology and wet lung weight) ([1]; daily from 24 hours after irradiation for two, four or six weeks, vs controls): significantly less immune infiltrate, edema, and fibrosis of the lungs | levels of fibrosis (Masson's Trichrome staining, Ashcroft scoring) ([1]; treatment started 24, 72 or 120 hours (within five days) after radiation): reduction in pulmonary fibrosis | wet lung weight (indicator of pneumonitis) ([2]; WTLI, vs vehicle): reduced wet lung weight | congestion and cellular infiltrate, H&E [2, 8]: reduced congestion and minimal cellular infiltrate | normal lung tissue remodeling (thickening of the septal wall), H&E [2, 8]: marked reduction in normal lung tissue remodeling | patients who developed pulmonary fibrosis ([3]; 21 NSCLC patients treated, to date, 9% in historical study): none | occurrences of pulmonary fibrosis one year later ([3]; NSCLC patients, one year later): no occurrences of pulmonary fibrosis | severity of dyspnea ([3]; NSCLC patients, vs historical trial): less severe | lung pathology [4, 9]: improved lung pathology | pro-inflammatory cytokine expression [4, 9]: reduced pro-inflammatory cytokine expression | survival ([4]; mouse, in vivo, po): increase in survival | solubility [5]: low to virtually no solubility | expression of NF-κB, pro-inflammatory cytokines (IL-1, IL-6, TNFα) and pro-fibrotic proteins (TGFβ, MMP-2, MMP-9, LDH) [6]: reduce expression | fibrosis [7]: significantly reduced fibrosis
